Residue numbers refer to the chain shown, from its start. Several values for one entry are separate records, joined by “and”; a condition that tells them apart may be missing. Equal entries are not always repeated.
What was measured:
[1] = test system: R120G cryAB knock-in mice; assay: Eye drops to live R120G cryAB knock-in mice; slit lens illumination and GPC/light scattering of lens homogenates; type: in vivo, mouse; conditions: 5 mM in saline-cyclodextrin, eye dropper three times a week for two weeks
[2] = target: T1, R120G cryAB (Homo sapiens, UniProt P02511, R120G); assay: 15N HSQC NMR binding site mapping; conditions: 15N HSQC NMR chemical shifts
T1 sequence (P02511 1-175 R120G): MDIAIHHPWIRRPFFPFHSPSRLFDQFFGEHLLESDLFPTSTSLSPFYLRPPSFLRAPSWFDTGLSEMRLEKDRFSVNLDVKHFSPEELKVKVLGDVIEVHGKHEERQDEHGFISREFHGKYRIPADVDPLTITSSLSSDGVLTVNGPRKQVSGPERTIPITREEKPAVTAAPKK

[3] = target: T1, R120G cryAB; assay: Amyloid formation / aggregation measured by electron microscopy and visual inspection; type: biochemical
Protocol: To test this idea, R120G cryAB (15 μM) was treated with 5-cholesten-3b,25-diol or cholesterol (100 μM) and its ability to aggregate was measured by electron microscopy.

[4] = target: T1, R120G cryAB; assay: Differential scanning fluorimetry (DSF), shift of apparent Tm; type: binding; conditions: DSF with R120G cryAB; for ACTIVITY (shift in thermal stability at 100 μM): 100 μM compound
Protocol: Differential scanning fluorimetry (DSF) was utilized to identify compounds that stabilize cryAB. In DSF experiments, the melting transition (Tm) of the protein target is measured in the presence of potential ligands (Cummings et al., J Biomol Screen 11, 854 (2006). DSF measures thermal unfolding of the target protein via the fluorescence of intrinsic tryptophans, or (more commonly) a dye, such as 1,8-anilinonapthalenesulfonic (bis-ANS) or Sypro Orange. Binding of a ligand adds free energy to the folded state or key intermediates, which limits unfolding and shifts the apparent Tm. These values are used to calculate the unfolding transition. When compounds bind to the target prior to heating, they stabilize against unfolding, shifting the ΔTm. […] (3).

[5] = target: T1, R120G cryAB; assay: Biolayer interferometry (Octet Red); type: binding; conditions: biotinylated cryAB on streptavidin-coated pins, equilibrium association data
Protocol: Measuring affinity for the test protein by biolayer interferometry (Octet Red) allows for the identification of false positives. Briefly, biotinylated cryAB is immobilized to streptavidin-coated pins and equilibrium association data across a hundred-fold concentration range is analyzed to generate the apparent KD. To control for nonspecific binding, the response of a biocytin-blocked pin is subtracted from each sensorgram.

[6] = target: T2, cryAB (Mus musculus, UniProt P23927, R120G); assay: Excised eyes from R120G cryAB knock-in mice treated with compound; conditions: 100 μM, versus saline control
T2 construct: from tissue; host or cells: excised eyes of R120G cryAB knock-in mice
T2 sequence (P23927 1-175 R120G): T1 sequence (P02511 1-175 R120G) with P39S, S41A, F61I, T170A
Protocol: The R120G cryAB knock-in mouse is a clinically-acceptable model of aging-associated and hereditary cataract. The animal model develops severe cataracts within 20 weeks (Andley et al., PLoS One 6, e17671 (2011)). Excised eyes from these mice were treated with 5-cholesten-3b,25-diol (100 μM) or a saline control.

[7] = test system: α-crystallin; assay: Gel filtration (GPC) analysis of α-crystallin solubility, treated versus fellow untreated eye; type: in vivo, mice
Protocol: 5-cholesten-3b,25-diol formulated in a saline-cyclodextrin solution (5 mM cyclodextran; 5 mM 5-cholesten-3b,25-diol) was delivered by eye dropper three times a week for two weeks to live mice (n=15). Gel filtration analysis of α-crystallin solubility was conducted by processing samples as previously described by Andley et al. (PLoS ONE, 6:3, 1-13 (2011)). Briefly, degree of aggregation of α-crystallin was determined using gel permeation chromatography (GPC) with light scattering and refractive index (RI) measurements. All data were analyzed using SAS version 9.3 (SAS Institute; Cary, N.C.). To control for differences in assay sensitivity among animals, the area under the curve for α-crystallin in the drug treated eye was compared to the area under the curve generated from the fellow untreated eye and expressed as “percent” difference in area using the untreated eye as the denominator. The percent difference between treated and untreated eyes was compared using the Wilcoxon signed rank test for the null hypothesis of no difference. The association between age and percent difference was calculated using the Spearman rank correlation coefficient. Non-parametric statistical models were used to protect from departures from normality.

[8] = R120G cryAB 15 μM, compound 100 μM

With `C[C@H](CCCC(C)(C)O)[C@H]1CC[C@H]2[C@@H]3CC=C4C[C@@H](O)CC[C@]4(C)[C@H]3CC[C@]12C` [5-cholesten-3b,25-diol] the cryAB solubility [1] was “significantly improved cryAB solubility”, the lens transparency [1] was “improved lens transparency” and the “rescued cataract phenotypes (treated mice)” value [1] was 10/15. The “binding site on R120G cryAB” value [2] was “binds a groove across the cryAB dimer interface”, the “amyloid formation (electron microscopy)” value [3, 8] was “dramatically suppressed amyloid formation” and the “opacity of the R120G cryAB mixture (visual inspection)” value [3, 8] was “reduced the opacity”. The “aggregation of pre-formed R120G cryAB amyloids” value ([3]; pre-formed amyloids) was “reversed the aggregation”, the “ACTIVITY (shift in thermal stability at 100 μM)” value [4] was −2.0 °C and the Kd [5] was 10.1 ± 4.4 µM. For the same compound, the “aggregation of cryAB” value [6] was “significantly reduced the aggregation of cryAB”, the cryAB solubility [6] was “improved cryAB solubility” and the “Percent difference in area between untreated and treated eyes, Mean” value (shortened to “Percent difference … Mean”) ([7]; Age 66 days) was 177.2%. For the same compound, the “Percent difference in area between untreated and treated eyes, Median” value (shortened to “Percent difference … Median”) ([7]; Age 66 days) was −20.2%, the “Percent difference … Mean” value ([7]; Age 79 days) was 98.1% and the “Percent difference … Median” value ([7]; Age 79 days) was 98.1%. For the same compound, the “Percent difference … Mean” value ([7]; Age 184 days) was 61.4%, the “Percent difference … Median” value ([7]; Age 184 days) was 61.4% and the “Percent difference … Mean” value ([7]; Age 192 days) was 22.7%. For the same compound, the “Percent difference … Median” value ([7]; Age 192 days) was 55.8%, the “Percent difference … Mean” value ([7]; Age 200 days) was 38.7% and the “Percent difference … Median” value ([7]; Age 200 days) was 31.8%. For the same compound, the “Percent difference … Mean” value ([7]; Age 266 days) was 1376.3%, the “Percent difference … Median” value ([7]; Age 266 days) was 679.0% and the “Percent difference … Mean” value ([7]; All ages) was 381.2±974.6% and 381.2%. The “Percent difference … Median” value ([7]; All ages) was 63.3% and the “area under the curve of α-crystallin, drug treated eyes versus fellow untreated eyes” value ([7]; eye drops 5 mM three times a week for two weeks, Wilcoxon signed rank) was “statistically significantly higher”.

With `CC(C)CCC[C@@H](C)[C@H]1CC[C@H]2[C@@H]3CC=C4C[C@@H](O)CC[C@]4(C)[C@H]3CC[C@]12C` [5-cholesten-3b-ol] the “ACTIVITY (shift in thermal stability at 100 μM)” value [4] was −1.1 °C.

For `CC(C)CCC[C@@H](C)[C@H]1CC[C@H]2[C@@H]3CC[C@H]4C[C@@H](O)CC[C@]4(C)[C@H]3CC[C@]12C` [5a-cholestan-3b-ol-6-one, (2R,5S,7S,15R)-5-hydroxy-2,15-dimethyl-14-(6-methylheptan-2-yl)tetracyclo [8.7.0.0^{2,7}.0^{11,15}] heptadecan-8-one], the “ACTIVITY (shift in thermal stability at 100 μM)” value [4] was −3.0 °C.

With `CC(C)CCC[C@@H](C)[C@H]1CC[C@H]2[C@@H]3CC=C4C[C@@H](O)CC[C@]4(C)[C@H]3CC[C@]12C` [cholesterol, reference compound] the “amyloid formation (electron microscopy)” value [3, 8] was “not” and the “activity in DSF” value ([4]; focused sterol collection) was “inactive”.

`C[C@]12CCC(=O)C[C@H]1CC[C@@H]1[C@@H]2CC[C@]2(C)[C@@H](O)CC[C@@H]12` [etiocholan-17b-ol-3-one] was tested, and the “ACTIVITY (shift in thermal stability at 100 μM)” value [4] was “+1.7 °C”.

— patent US9675623B2, “Non-surgical method of treatment for cataract” (THE REGENTS OF THE UNIVERSITY OF MICHIGAN, priority 2012, dated 2017)
